Laboratory results from PubChem BioAssay AID248 (DTP/NCI, 2004).
“And” between values parts separate entries of the source, which are not always exact repeats. Identical values can stand only once. Inconclusive results and toxic doses are left out.

System: L1210 leukemia ip in BDF1 mice, survival T/C
Assay: NCI In Vivo Anticancer Drug Screen. Data for tumor model L1210 Leukemia (intraperitoneal) in B6D2F1 (BDF1) mice
Details: endpoint: mean survival time, higher = longer survival
Procedure, shortened: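 Mice bearing the transplanted tumor received compound or vehicle. Survival of the treated group was divided by that of the vehicle-treated control group to give the ratio.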

[1] = dose: 100.0 mg/kg/injection, schedule: Q01DX009 (ip), vehicle: Klucel (hydroxypropylcellulose) (HPC)
[2] = dose: 100.0 mg/kg/injection, schedule: Q04DX002 (ip), vehicle: Klucel (hydroxypropylcellulose) (HPC)
[3] = dose: 100.0 mg/kg/injection, schedule: Q04DX003 (ip), vehicle: Klucel (hydroxypropylcellulose) (HPC)
[4] = dose: 200.0 mg/kg/injection, schedule: Q01DX009 (ip), vehicle: Klucel (hydroxypropylcellulose) (HPC)
[5] = dose: 200.0 mg/kg/injection, schedule: Q04DX002 (ip), vehicle: Klucel (hydroxypropylcellulose) (HPC)
[6] = dose: 200.0 mg/kg/injection, schedule: Q04DX003 (ip), vehicle: Klucel (hydroxypropylcellulose) (HPC)
[7] = dose: 400.0 mg/kg/injection, schedule: Q04DX002 (ip), vehicle: Klucel (hydroxypropylcellulose) (HPC)
[8] = dose: 400.0 mg/kg/injection, schedule: Q04DX003 (ip), vehicle: Klucel (hydroxypropylcellulose) (HPC)
[9] = dose: 100.0 mg/kg/injection, schedule: Q04DX003 (ip), vehicle: saline
[10] = dose: 200.0 mg/kg/injection, schedule: Q04DX003 (ip), vehicle: saline
[11] = dose: 25.0 mg/kg/injection, schedule: Q01DX009 (ip), vehicle: saline with Tween-80
[12] = dose: 100.0 mg/kg/injection, schedule: Q01DX009 (ip), vehicle: saline with Tween-80
[13] = dose: 100.0 mg/kg/injection, schedule: Q04DX003 (ip), vehicle: saline with Tween-80
[14] = dose: 200.0 mg/kg/injection, schedule: Q04DX003 (ip), vehicle: saline with Tween-80
[15] = dose: 400.0 mg/kg/injection, schedule: Q04DX003 (ip), vehicle: saline with Tween-80
[16] = dose: 300.0 mg/kg/injection, schedule: Q01DX001 (ip), vehicle: carboxymethylcellulose (CMC)
[17] = dose: 100.0 mg/kg/injection, schedule: Q01DX001 (ip), vehicle: Klucel (hydroxypropylcellulose) (HPC)
[18] = dose: 200.0 mg/kg/injection, schedule: Q01DX001 (ip), vehicle: Klucel (hydroxypropylcellulose) (HPC)
[19] = dose: 200.0 mg/kg/injection, schedule: Q01DX009 (ip), vehicle: saline with Tween-80

CC(NC(=O)OCc1ccccc1)C(=O)O (centres undefined)
T/C [1]: 97 % of control
T/C [2]: 95 % of control
T/C [3]: 100 % of control
T/C [4]: 90 % of control
T/C [5]: 94 % of control
T/C [6]: 100 % of control
T/C (dose: 400.0 mg/kg/injection, schedule: Q01DX009 (ip), vehicle: Klucel (hydroxypropylcellulose) (HPC)): 97 % of control
T/C [7]: 97 % of control
T/C [8]: 95 % of control

CCOC(=O)C(=CN1CCCCC1)C(=O)OCC
T/C [9]: 98 % of control
T/C [10]: 101 % of control
T/C (dose: 400.0 mg/kg/injection, schedule: Q04DX003 (ip), vehicle: saline): 95 % of control

O=c1[nH]c(=O)c(C2OC(CO)C(O)C2O)co1 (centres undefined)
T/C (dose: 6.25 mg/kg/injection, schedule: Q04DX003 (ip), vehicle: saline with Tween-80): 123 % of control
T/C (dose: 12.5 mg/kg/injection, schedule: Q04DX003 (ip), vehicle: saline with Tween-80): 106 % of control

Cc1ccc(C(=O)OCc2ccccc2CN2CCCCC2C)cc1 (centres undefined)
T/C [2]: 94 % of control
T/C [5]: 108 % of control
T/C [7]: 90 % of control

OC12Cc3ccccc3C1=NN(c1ccccc1)C2c1ccccc1 (centres undefined)
T/C [11]: 101 % of control
T/C (dose: 50.0 mg/kg/injection, schedule: Q01DX009 (ip), vehicle: saline with Tween-80): 104 % of control
T/C [12]: 90 % of control
T/C [13]: 93 % of control
T/C [14]: 97 % of control
T/C [15]: 91 % of control

O=C(N/N=C\c1ccc2c(c1)OCO2)N/N=C/c1ccc2c(c1)OCO2
T/C [3]: 97 % of control
T/C [6]: 100 % of control
T/C [8]: 97 % of control

CC(=O)CCC[CH2][Sn]([c]1ccccc1)([c]1ccccc1)[c]1ccccc1
T/C (dose: 100.0 mg/kg/injection, schedule: Q04DX002 (ip), vehicle: saline with Tween-80): 102 % of control
T/C (dose: 200.0 mg/kg/injection, schedule: Q04DX002 (ip), vehicle: saline with Tween-80): 91 % of control
T/C (dose: 400.0 mg/kg/injection, schedule: Q04DX002 (ip), vehicle: saline with Tween-80): 97 % of control

CC1(N)CC2CCC1C2 (centres undefined)
T/C [9]: 96 % of control
T/C [10]: 92 % of control

O=C(CCCCl)CC(O)(C(F)(F)Cl)C(F)(F)Cl
T/C [13]: 104 % of control
T/C [14]: 102 % of control

CC1=CC(=O)c2ccccc2C1=O
T/C (dose: 10.0 mg/kg/injection, schedule: Q01DX015 (ip), vehicle: carboxymethylcellulose (CMC)): 90 % of control
T/C (dose: 15.0 mg/kg/injection, schedule: Q01DX015 (ip), vehicle: carboxymethylcellulose (CMC)): 90 % of control
T/C (dose: 20.0 mg/kg/injection, schedule: Q01DX015 (ip), vehicle: carboxymethylcellulose (CMC)): 90 % of control
T/C (dose: 43.0 mg/kg/injection, schedule: Q01DX001 (ip), vehicle: carboxymethylcellulose (CMC)): 97 % of control
T/C (dose: 64.0 mg/kg/injection, schedule: Q01DX001 (ip), vehicle: carboxymethylcellulose (CMC)): 102 % of control
T/C (dose: 85.0 mg/kg/injection, schedule: Q01DX001 (ip), vehicle: carboxymethylcellulose (CMC)): 108 % of control

Nc1c2c(nc3ccccc13)CCCC2
T/C (dose: 0.78 mg/kg/injection, schedule: Q04DX003 (ip), vehicle: saline): 101 % of control
T/C (dose: 1.56 mg/kg/injection, schedule: Q01DX009 (ip), vehicle: saline): 98 % of control
T/C (dose: 1.56 mg/kg/injection, schedule: Q04DX003 (ip), vehicle: saline): 93 % of control
T/C (dose: 3.12 mg/kg/injection, schedule: Q01DX009 (ip), vehicle: saline): 93 % of control
T/C (dose: 3.12 mg/kg/injection, schedule: Q04DX003 (ip), vehicle: saline): 104 % of control
T/C (dose: 6.25 mg/kg/injection, schedule: Q04DX003 (ip), vehicle: saline): 96 % of control
T/C (dose: 12.5 mg/kg/injection, schedule: Q04DX003 (ip), vehicle: saline): 95 % of control

O=NN(CCCl)C(=O)Nc1ccc2c(c1)Cc1ccccc1-2
T/C (dose: 10.0 mg/kg/injection, schedule: Q01DX009 (ip), vehicle: other): 156 % of control
T/C (dose: 20.0 mg/kg/injection, schedule: Q01DX009 (ip), vehicle: other): 167 % of control
T/C (dose: 40.0 mg/kg/injection, schedule: Q01DX009 (ip), vehicle: other): 113 % of control
T/C (dose: 44.0 mg/kg/injection, schedule: Q01DX009 (ip), vehicle: carboxymethylcellulose (CMC)): 164 % of control
T/C (dose: 66.0 mg/kg/injection, schedule: Q01DX009 (ip), vehicle: carboxymethylcellulose (CMC)): 208 % of control
T/C (dose: 100.0 mg/kg/injection, schedule: Q01DX009 (ip), vehicle: carboxymethylcellulose (CMC)): 175 % of control
T/C (dose: 150.0 mg/kg/injection, schedule: Q01DX009 (ip), vehicle: carboxymethylcellulose (CMC)): 96 % of control
T/C [16]: 102 % of control

CC(=O)OCC1OC(SC2CCCCC2Br)C(OC(C)=O)C(OC(C)=O)C1OC(C)=O (centres undefined)
T/C (dose: 100.0 mg/kg/injection, schedule: Q01DX001 (ip), vehicle: saline): 101 % of control
T/C (dose: 200.0 mg/kg/injection, schedule: Q01DX001 (ip), vehicle: saline): 104 % of control
T/C (dose: 400.0 mg/kg/injection, schedule: Q01DX001 (ip), vehicle: saline): 106 % of control

O=C(NCc1ccc(S(=O)(=O)F)cc1)Oc1ccc([N+](=O)[O-])cc1
T/C (dose: 25.0 mg/kg/injection, schedule: Q01DX009 (ip), vehicle: other): 100 % of control
T/C (dose: 50.0 mg/kg/injection, schedule: Q01DX009 (ip), vehicle: other): 88 % of control
T/C (dose: 100.0 mg/kg/injection, schedule: Q01DX009 (ip), vehicle: other): 98 % of control and 87 % of control

CCC(N)Cc1ccc(OC)c(OC)c1 (centres undefined)
T/C (dose: 100.0 mg/kg/injection, schedule: Q01DX009 (ip), vehicle: saline): 98 % of control
T/C [9]: 93 % of control
T/C (dose: 200.0 mg/kg/injection, schedule: Q01DX009 (ip), vehicle: saline): 98 % of control
T/C [10]: 97 % of control

Nn1c2ccccc2c2ccccc21
T/C (dose: 50.0 mg/kg/injection, schedule: Q01DX009 (ip), vehicle: Klucel (hydroxypropylcellulose) (HPC)): 103 % of control
T/C (dose: 75.0 mg/kg/injection, schedule: Q01DX001 (ip), vehicle: carboxymethylcellulose (CMC)): 101 % of control
T/C [1]: 103 % of control
T/C (dose: 150.0 mg/kg/injection, schedule: Q01DX001 (ip), vehicle: carboxymethylcellulose (CMC)): 104 % of control
T/C [4]: 92 % of control
T/C [16]: 96 % of control

CC1CCCCN1Cc1ccccc1COC(=O)c1ccc(Cl)cc1 (centres undefined)
T/C [17]: 98 % of control
T/C [18]: 107 % of control

N#C/C(=C\c1ccco1)c1ccc([N+](=O)[O-])cc1
T/C (dose: 6.25 mg/kg/injection, schedule: Q01DX009 (ip), vehicle: saline with Tween-80): 90 % of control
T/C (dose: 12.5 mg/kg/injection, schedule: Q01DX009 (ip), vehicle: saline with Tween-80): 90 % of control
T/C [11]: 95 % of control

CCCCCc1c(CCC)[nH]c(=O)[nH]c1=O
T/C [17]: 105 % of control
T/C [18]: 106 % of control
T/C (dose: 400.0 mg/kg/injection, schedule: Q01DX001 (ip), vehicle: Klucel (hydroxypropylcellulose) (HPC)): 90 % of control

CCOC(=O)C1Oc2ccc(Cl)cc2C1=O (centres undefined)
T/C (dose: 100.0 mg/kg/injection, schedule: Q04DX002 (ip), vehicle: gum acacia): 97 % of control
T/C (dose: 200.0 mg/kg/injection, schedule: Q04DX002 (ip), vehicle: gum acacia): 97 % of control
T/C (dose: 400.0 mg/kg/injection, schedule: Q04DX002 (ip), vehicle: gum acacia): 101 % of control

NOCc1csc(Nc2ccccc2)n1
T/C [9]: 100 % of control
T/C [10]: 88 % of control

CCCCC(=O)NC(=O)c1ccccc1
T/C [12]: 96 % of control
T/C [13]: 101 % of control
T/C [19]: 96 % of control
T/C [14]: 92 % of control
T/C (dose: 400.0 mg/kg/injection, schedule: Q01DX009 (ip), vehicle: saline with Tween-80): 93 % of control
T/C [15]: 103 % of control

CNc1c(Cl)c(Cl)cc(Cl)c1Cl
T/C [12]: 104 % of control
T/C [13]: 95 % of control
T/C [19]: 110 % of control
T/C [14]: 114 % of control
T/C [15]: 93 % of control
